In brackets after ≈: the same amount, converted by molar mass. Several values for one entry are separate records, joined by “and”; a condition that tells them apart may be missing. Equal values may be shown once. Read-outs that look alike come from different tables or passages of the source. Marks after values point to notes of the source that are not given here.
Legend:
streptococcal GTFs [1] = test system: T1, streptococcal GTFs; experiment: GTF activity in solution, all GTFs (B, C, D, Ss) stated together; assay type: biochemical, Streptococcus mutans, S. sanguinis; conditions: for inhibitory effects on the activities of GTFs (in words): 1.33 mM (fluoride 250 ppm), solution and sHA surface
T1 construct: Streptococcus milleri KSB8, which harbors the gtfB gene from S. mutans GS-5 (for GTF B production)
Protocol: The GTF enzyme added to each sample for all assays was equivalent to the amount required to incorporate 1.0-1.5 μmol of glucose over the four hours reaction (1.0-1.5 units).
The samples were incubated 37° C. with rocking for 4 h.
For this assay, a one-way layout experimental design was used in 4×2×7 factorial scheme (enzyme×state×dose). An analysis of variance was carried out and qualitative treatments were compared using Tukey test at level of 5% of significance (p<0.05). A non-linear regression was applied in order to evaluate effects of different concentrations.

streptococcal GTFs [2] = test system: T1, streptococcal GTFs; experiment: GTF activity adsorbed onto sHA surface, all GTFs stated together; assay type: biochemical, Streptococcus mutans, S. sanguinis; conditions: 1.33 mM
Protocol: Glucosyltransferase activity was measured by the incorporation of [^14C-glucose] from labeled sucrose (NEN Research Products, Boston, Mass.) into glucans (Germaine et al., 1974; Venkitaraman et al., 1995). The GTF enzyme added to each sample for all assays was equivalent to the amount required to incorporate 1.0-1.5 μmol of glucose over the four hours reaction (1.0-1.5 units).
For surface assays, the GTFs were adsorbed to hydroxyapatite beads coated with clarified whole saliva (free of GTF activity), as detailed elsewhere (Koo et al., 2000c; Schilling and Bowen, 1988, Venkitaraman et al., 1995). The saliva-coated hydroxyapatite (sHA) beads were exposed to sufficient enzyme to saturate the surface as determined experimentally. Following the adsorption of the enzyme, the beads were washed 3 times with buffer to remove the loosely bound material and exposed to 300 μl of the two-fold dilution series of test compounds (or control) for 30 min. at the same concentrations described above. The beads were washed and exposed to 300 μl [^14C-glucose]-sucrose substrate (100.0 mmol/l sucrose, final concentration). The radiolabeled glucan formed was collected and quantified by scintillation counting (Germaine et al., 1974; Venkitaraman et al., 1995). All the solution and surface assays were done in quadruplicate in at least 3 different experiments. […]

[3] = test system: Mutans Streptococci Strains; experiment: MIC and MBC, broth dilution, all strains stated together; assay type: cell-based, S. mutans (GS-5 and UA159) and S. sobrinus 6715; conditions: Streptococcus mutans; for MIC: read-out: MIC
Protocol: (§1) The minimum inhibitory concentration (MIC) and minimum bactericidal concentration (MBC) were determined for each test compound according to the National Committee for Clinical Laboratory Standards guidelines (Tentative standard M26-T, 1992; NCCLS Publication No. M7-A5, 2000) and Koo et al. (2000b). The broth microdilution and macrodilution methods (in TSB) were used for the antibacterial tests. The starting inoculum was 5×10^5 CFU/ml and the concentrations of test compounds ranged from 15.6 to 500 μM (two-fold dilutions). The MICs and MBCs were determined in quadruplicate in at least 3 different experiments.

mutans streptococci = experiment: Time-kill studies, broth macrodilution; assay type: cell-based, S. mutans GS-5 and UA159, S. sobrinus 6715
Protocol: For the compound with highest antibacterial activity, the time kill studies were performed by broth macrodilution method (National Committee for Clinical Laboratory Standards, Tentative standard M26-T, 1992). The starting inoculum of S. mutans GS-5 and UA159, and S. sobrinus 6715 was 1-5×10^6 CFU/ml. The final concentration of the antibacterial agent was 4 times MIC (or MBC values). Tubes containing the microorganisms and the test compound in TSB were incubated in 5% CO2 at 37° C.; samples were removed for viable counts at 0, 30 min., 1, 2, 4, 8, and 24 h. Serial dilutions (10^−1 to 10^−4) were prepared in sterile 0.9% sodium chloride solution. The diluted sample (50 μl) was plated on to tryptic soy agar by means of a spiral plater (Autoplate model 3000, Spiral Biotech, Inc., Bethesda, Md.). The plates were incubated in 5% CO2 at 37° C. for 48 h, when the number of colonies was determined. Killing curves were constructed by plotting log10 CFU/ml versus time over 24 h. All the assays were done in quadruplicate on at least 3 occasions. Bactericidal effect was defined as a ≧3 log10 decreases in the CFU/ml from the original inoculum. The potential for drug carry-over to produce falsely low viability counts was minimized by dilution of inocula and plating of small volumes of diluted samples (50 μl). In addition, no evidence of drug carry-over was detected at the lowest dilution used for plating (10^−1).

[4] = test system: S. mutans UA159 and S. sobrinus 6715 biofilms; experiment: Time-kill assay in 5-day-old biofilms; assay type: cell-based; conditions: for antibacterial activity against mutans streptococci biofilms (in words): 1.33 mM (fluoride 250 ppm); for decrease in viable counts of biofilms: 1.33 mM, after 2-4 h incubation
Protocol: Cells of mutans streptococci were grown in tryptone-yeast extract broth with addition of 1% (w/v) sucrose at 37° C. and 5% CO2. […] The killing assays were performed according to Phan et al. (2000). […] The homogenized suspension was serially diluted (10^1 to 10^4) and plated on tryptic soy agar or blood agar by means of a spiral plater (Autoplate model 3000, Spiral Biotech, Inc., Bethesda, Md). […] Killing curves were constructed by plotting log10 CFU/ml versus time over 4 h. All the assays were carried out in quadruplicate on at least 3 different occasions. Bactericidal effect was defined as a ≧3 log10 decreases in the CFU/ml from initial viable counts, at time zero. The potential for drug carry-over to produce falsely low viability counts was minimized by dilution of inocula and plating of small volumes of diluted samples (50 μl).

[5] = test system: Streptococcus sobrinus 6715; experiment: Rat caries experiment: S. sobrinus recovered from the jaws; assay type: in vivo, Sprague Dawley rats; conditions: rats, topical twice daily, five weeks; 1.33 mM (fluoride 250 ppm); means (SD)
Protocol: (§2) Seven litters of ten female Sprague Dawley rats aged 14 days were purchased with their dams from Charles River (Kingston, N.Y., USA). […] The experiment proceeded for five weeks, at which time the animals were killed by CO2 asphyxiation. The lower left jaw was aseptically dissected, suspended in 5.0 mL of sterile saline solution, and sonicated (three 10-second pulses with 5-second intervals at 30 watts, Branson Sonifier 450). The suspension was plated on mitis salivarius agar plus streptomycin to estimate S. sobrinus population and on blood agar to determine total cultivable flora (TCF). […] The determination of caries score was blind by codification of the jaws and was done by 1 calibrated examiner. […] The level of significance was 5%.

dental caries = experiment: Rat caries experiment: caries scores (Larson's modification of Keyes' system); assay type: in vivo, Sprague Dawley rats; conditions: for smooth-surface caries severity scores versus control (in words): Ds and Dm levels, tt-farnesol Dm only; for smooth-surface caries severity scores versus control (in words) / reduction of the incidence of smooth surface caries compared to control / incidence and severity of sulcal-surface caries (in words): p<0.05; for smooth surface caries, Keyes's score / reduction of the incidence of smooth surface caries compared to control / incidence and severity of sulcal-surface caries (in words): rats; for smooth surface caries, Keyes's score / reduction of the incidence of smooth surface caries compared to control: topical twice daily, five weeks
Protocol: as §2

[6] = test system: Streptococcus mutans GS-5; experiment: MIC and MBC, broth dilution; assay type: cell-based
Protocol: as §1

[7] = test system: Streptococcus mutans UA 159; experiment: MIC and MBC, broth dilution; assay type: cell-based
Protocol: as §1

[8] = test system: Streptococcus sobrinus 6715; experiment: MIC and MBC, broth dilution; assay type: cell-based
Protocol: as §1

S. mutans strains = experiment: MIC and MBC, broth dilution, S. mutans strains stated together; assay type: cell-based, S. mutans (GS-5 and UA159)
Protocol: as §1

streptococci = experiment: Membrane disruption seen in the phase-contrast microscope; assay type: cell-based
biofilms = experiment: Formation of biofilms (continued research); assay type: cell-based

## [H]/N=C(\N/C(=N/[H])NCCCCCCNC(=N)NC(=N)Nc1ccc(Cl)cc1)Nc1ccc(Cl)cc1 [Chlorhexidine, chlorhexidine, reference compound]
Streptococcal GTFs [1]; 1.33 mM
  inhibition of GTFs in solution: 30-45%
Streptococcal GTFs [1]
  inhibitory effects on the activities of GTFs (in words): either negligible or moderate inhibitory effects
Streptococcal GTFs [2]
  inhibition of GTFs on a surface: 10-20%
[3]; all strains tested (S. mutans GS-5, UA159, S. sobrinus 6715)
  MIC: 1.1 to 2.2 µM
[3]; all strains tested
  MIC: 1 to 2 mg/L
[3]; mutans streptococci strains
  MBC: 8.9 µM and 8 µg/mL
Mutans streptococci; 8.9 μM (MBC), mutans streptococci strains
  incubation time to bactericidal effects: 8 h
[4]
  antibacterial activity against mutans streptococci biofilms (in words): not bactericidal
  decrease in viable counts of biofilms: 2-3 log10 CFU/ml
[5]
  Infection by S. sobrinus, %: 34.1 (10.8)^b %
Dental caries
  smooth-surface caries severity scores versus control (in words): significantly lower
  smooth surface caries, Keyes's score: 2.0±1.9
  reduction of the incidence of smooth surface caries compared to control: 75%
  incidence and severity of sulcal-surface caries (in words): reduced

## [F-].[Na+] [Fluoride, sodium fluoride]
Streptococcal GTFs [1]
  inhibitory effects on the activities of GTFs (in words): devoid of detectable antimicrobial and anti-GTF activity
Streptococcal GTFs [1]; listed as fluoride
  inhibitory effects on the activities of GTFs (in words): either negligible or moderate inhibitory effects
[4]
  antibacterial activity against mutans streptococci biofilms (in words): devoid of detectable antimicrobial and anti-GTF activity
[4]; listed as fluoride
  antibacterial activity against mutans streptococci biofilms (in words): negligible antibacterial activity
[5]
  Infection by S. sobrinus, %: 39.8 (13.2)^ab %
Dental caries
  smooth-surface caries severity scores versus control (in words): significantly lower
  smooth surface caries, Keyes's score: 2.3±3.0
  reduction of the incidence of smooth surface caries compared to control: 72%
  incidence and severity of sulcal-surface caries (in words): reduced

## CC(C)=CCC/C(C)=C/CC/C(C)=C/CO [tt-Farnesol]
Streptococcal GTFs [1]
  inhibitory effects on the activities of GTFs (in words): either negligible or moderate inhibitory effects
Streptococcal GTFs [1]; 1.33 mM, solution or surface not specified
  effects on enzyme activity (GTFs): 10-20%
[6]
  MBC: 500 µM (≈ 111 µg/mL)
  MIC: 125 µM (≈ 27.8 µg/mL)
[7]
  MBC: 500 µM (≈ 111 µg/mL)
  MIC: 125 µM (≈ 27.8 µg/mL)
[8]; S. sobrinus 6715
  MBC: 56 mg/L
  MIC: 14 mg/L
[8]; Streptococcus sobrinus 6715
  MBC: 250 µM
  MIC: 62.5 µM
S. mutans strains
  MBC: 500 μM and 112 μg/ml
  MIC: 125 μM and 28 μg/ml
Mutans streptococci; four times the MIC (or MBC), S. sobrinus 6715 and S. mutans strains
  incubation time to bactericidal effects (≧3 log decrease in CFU/ml): 4-8 h
Mutans streptococci; four times the MIC (or MBC), within 30 min. to 1 h of incubation
  reduction of viable counts: 1 log of CFU/ml
streptococci
  concentration giving visible membrane disruption of streptococci: > 10 mM
[4]
  decrease in viable counts of biofilms: 1 log10 CFU/ml
[5]
  Infection by S. sobrinus, %: 44.8 (8.2)^a %
Dental caries
  smooth-surface caries severity scores versus control (in words): significantly lower
biofilms
  formation of biofilms (in words): inhibits formation of biofilms

Reference: patent publication US20040057908A1, “Oral compositions and use thereof” (priority 2003, published 2004)
